The text below walks through data of ChEMBL document CHEMBL3044818, “Fungicide resistance status in French populations of the wheat eyespot fungi Oculimacula acuformis and Oculimacula yallundae” (Pest Manag Sci, 2013).

In brackets after ≈: the same amount, converted by molar mass. Some results are limits rather than exact numbers.

One assay deals with Oculimacula yallundae. Kind of assay: Fungicidal activity against Oculimacula yallundae assessed as inhibition of germ tube elongation incubated at 19 degC in dark for 48 hr.
Conditions: not given
It counts as functional, organism-based.
As to `COC(=O)Nc1nc2ccccc2[nH]1` [CARBENDAZIM], the EC50 is 0.04 µg/mL (≈ 0.209 µM).

Take `CC1=C(C(=O)Nc2ccccc2)SCCO1` [CARBOXIN]: the EC50 came to 2.5 µg/mL (≈ 10.6 µM).

For `Cc1cc(C2CC2)nc(Nc2ccccc2)n1` [CYPRODINIL], the half-maximal effective concentration (EC50) turned out to be 0.004 µg/mL (≈ 0.0178 µM).

Regarding `CC(Cc1ccc(C(C)(C)C)cc1)CN1C[C@@H](C)O[C@@H](C)C1` (stereo partly drawn) [FENPROPIMORPH], the EC50 was 0.4 µg/mL (≈ 1.32 µM).

`CC(C)CC(C)c1sccc1NC(=O)c1cn(C)nc1C(F)(F)F` (stereo not drawn) [PENTHIOPYRAD]: the EC50 was 0.02 µg/mL (≈ 0.0556 µM).

As for `Cc1cc(C)nc(Nc2ccccc2)n1` [PYRIMETHANIL], the EC50 turned out to be 0.1 µg/mL (≈ 0.502 µM).

For the molecule `CN(C/C=C/C#CC(C)(C)C)Cc1cccc2ccccc12` [TERBINAFINE], the EC50 amounted to 0.008 µg/mL (≈ 0.0275 µM).

Regarding `Cc1cccc(N(C)C(=S)Oc2ccc3ccccc3c2)c1` [TOLNAFTATE], the EC50 turned out to be 0.3 µg/mL (≈ 0.976 µM).

For a further assay, the system named is Oculimacula yallundae. Briefly: Resistance index, ratio of EC50 for sterol 14alpha-demethylation inhibitor-resistant Oculimacula yallundae MDR to EC50 for sterol 14alpha-demethylation inhibitor-resistant Oculimacula yallundae TriR1 by germ tube elongation assay. It counts as functional.
Conditions: not given
Regarding `CC1=C(C(=O)Nc2ccccc2)SCCO1` [CARBOXIN], the “Ratio EC50” value was found to be 1.4.

In the case of `Cc1cc(C2CC2)nc(Nc2ccccc2)n1` [CYPRODINIL], the “Ratio EC50” value is recorded as 13.

As to `CC(C)CC(C)c1sccc1NC(=O)c1cn(C)nc1C(F)(F)F` (stereo not drawn) [PENTHIOPYRAD], the “Ratio EC50” value came out at 12.

As for `Cc1cc(C)nc(Nc2ccccc2)n1` [PYRIMETHANIL], the “Ratio EC50” value came out at 12.

On to `Cc1cccc(N(C)C(=S)Oc2ccc3ccccc3c2)c1` [TOLNAFTATE], for which the “Ratio EC50” value is given as above 25.

A further assay concerns Oculimacula yallundae. Briefly: Resistance index, ratio of EC50 for sterol 14alpha-demethylation inhibitor-resistant Oculimacula yallundae TriR2 to EC50 for wild type Oculimacula yallundae TriS by germ tube elongation assay. It is filed as functional.
Conditions: not given
Turning to `CC1=C(C(=O)Nc2ccccc2)SCCO1` [CARBOXIN], the “Ratio EC50” value stood at 1.2.

Take `Cc1cc(C2CC2)nc(Nc2ccccc2)n1` [CYPRODINIL]: the “Ratio EC50” value is recorded as 1.

In the case of `CC(C)CC(C)c1sccc1NC(=O)c1cn(C)nc1C(F)(F)F` (stereo not drawn) [PENTHIOPYRAD], the “Ratio EC50” value was found to be 1.

Consider `Cc1cc(C)nc(Nc2ccccc2)n1` [PYRIMETHANIL], for which the “Ratio EC50” value came out at 1.2.

With `Cc1cccc(N(C)C(=S)Oc2ccc3ccccc3c2)c1` [TOLNAFTATE], the “Ratio EC50” value turned out to be 1.

Tested on in the next assay: not listed separately
Briefly: Selectivity index, ratio of EC50 for Oculimacula acuformis to EC50 for Oculimacula yallundae in presence of 10 g glucose by mycelial growth inhibition assay. It counts as functional.
Conditions: not given
Take `COC(=O)Nc1nc2ccccc2[nH]1` [CARBENDAZIM]: the Ratio EC50 worked out at 1.3.

`Cc1cc(C2CC2)nc(Nc2ccccc2)n1` [CYPRODINIL]: the Ratio EC50 amounted to 0.12.

On to `CC(Cc1ccc(C(C)(C)C)cc1)CN1C[C@@H](C)O[C@@H](C)C1` (stereo partly drawn) [FENPROPIMORPH], for which the Ratio EC50 is 0.12.

As for `CN(C/C=C/C#CC(C)(C)C)Cc1cccc2ccccc12` [TERBINAFINE], the Ratio EC50 was found to be 0.8.

The next assay relates to Oculimacula yallundae. Briefly: Fungicidal activity against Oculimacula yallundae assessed as inhibition of mycelial growth in presence of 10 g glucose incubated at 19 degC in dark for 4 weeks. It is filed as functional, organism-based. The following applies: 672 h.
Turning to `COC(=O)Nc1nc2ccccc2[nH]1` [CARBENDAZIM], the concentration giving a half-maximal response (EC50) was 0.03 µg/mL.

As for `Cc1cc(C2CC2)nc(Nc2ccccc2)n1` [CYPRODINIL], the half-maximal effective concentration (EC50) was found to be 0.5 µg/mL.

For `CC(Cc1ccc(C(C)(C)C)cc1)CN1C[C@@H](C)O[C@@H](C)C1` (stereo partly drawn) [FENPROPIMORPH], the concentration for a half-maximal effect (EC50) was 15 µg/mL.

Regarding `CN(C/C=C/C#CC(C)(C)C)Cc1cccc2ccccc12` [TERBINAFINE], the concentration for a half-maximal effect (EC50) was determined as 0.3 µg/mL.

For another assay, the system named is Oculimacula acuformis. Kind of assay: Fungicidal activity against Oculimacula acuformis assessed as inhibition of mycelial growth in presence of 10 g glucose incubated at 19 degC in dark for 4 weeks. It counts as functional, organism-based. Particulars: 672 h.
In the case of `COC(=O)Nc1nc2ccccc2[nH]1` [CARBENDAZIM], the EC50 is 0.04 µg/mL.

As for `Cc1cc(C2CC2)nc(Nc2ccccc2)n1` [CYPRODINIL], the EC50 was 0.06 µg/mL.

Consider `CC(Cc1ccc(C(C)(C)C)cc1)CN1C[C@@H](C)O[C@@H](C)C1` (stereo partly drawn) [FENPROPIMORPH], for which the EC50 came out at 1.8 µg/mL.

As for `CN(C/C=C/C#CC(C)(C)C)Cc1cccc2ccccc12` [TERBINAFINE], the 50% effective concentration (EC50) came to 0.25 µg/mL.

The subject of a further assay is Oculimacula acuformis. Kind of assay: Fungicidal activity against Oculimacula acuformis assessed as inhibition of germ tube elongation incubated at 19 degC in dark for 48 hr. It counts as functional, organism-based.
Conditions: not given
`COC(=O)Nc1nc2ccccc2[nH]1` [CARBENDAZIM]: the half-maximal effective concentration (EC50) worked out at 0.04 µg/mL (≈ 0.209 µM).

On to `Cc1cc(C2CC2)nc(Nc2ccccc2)n1` [CYPRODINIL], for which the EC50 is 0.004 µg/mL (≈ 0.0178 µM).

Consider `CC(Cc1ccc(C(C)(C)C)cc1)CN1C[C@@H](C)O[C@@H](C)C1` (stereo partly drawn) [FENPROPIMORPH], for which the EC50 is 0.06 µg/mL (≈ 0.198 µM).

`CN(C/C=C/C#CC(C)(C)C)Cc1cccc2ccccc12` [TERBINAFINE]: the EC50 worked out at 0.01 µg/mL (≈ 0.0343 µM).

Tested on in the next assay: not listed separately
Briefly: Selectivity index, ratio of EC50 for Oculimacula acuformis to EC50 for Oculimacula yallundae by germ tube elongation inhibition assay. It is filed as functional.
Conditions: not given
Consider `COC(=O)Nc1nc2ccccc2[nH]1` [CARBENDAZIM], for which the Ratio EC50 was 1.

Take `Cc1cc(C2CC2)nc(Nc2ccccc2)n1` [CYPRODINIL]: the Ratio EC50 came to 1.

Take `CC(Cc1ccc(C(C)(C)C)cc1)CN1C[C@@H](C)O[C@@H](C)C1` (stereo partly drawn) [FENPROPIMORPH]: the Ratio EC50 is 0.15.

`CN(C/C=C/C#CC(C)(C)C)Cc1cccc2ccccc12` [TERBINAFINE]: the Ratio EC50 was found to be 1.3.

The subject of another assay is Oculimacula yallundae. Kind of assay: Resistance index, ratio of EC50 for sterol 14alpha-demethylation inhibitor-resistant Oculimacula yallundae TriR2 to EC50 for sterol 14alpha-demethylation inhibitor-resistant Oculimacula yallundae TriR1 by germ tube elongation assay. It is filed as functional.
Conditions: not given
Take `CC1=C(C(=O)Nc2ccccc2)SCCO1` [CARBOXIN]: the “Ratio EC50” value was determined as 1.2.

On to `Cc1cc(C2CC2)nc(Nc2ccccc2)n1` [CYPRODINIL], for which the “Ratio EC50” value is recorded as 1.

As to `CC(C)CC(C)c1sccc1NC(=O)c1cn(C)nc1C(F)(F)F` (stereo not drawn) [PENTHIOPYRAD], the “Ratio EC50” value was found to be 1.

For the molecule `Cc1cc(C)nc(Nc2ccccc2)n1` [PYRIMETHANIL], the “Ratio EC50” value is listed as 1.2.

With `Cc1cccc(N(C)C(=S)Oc2ccc3ccccc3c2)c1` [TOLNAFTATE], the “Ratio EC50” value was determined as 0.8.

A further assay relates to Oculimacula yallundae. Kind of assay: Resistance index, ratio of EC50 for sterol 14alpha-demethylation inhibitor-resistant Oculimacula yallundae MDR to EC50 for wild type Oculimacula yallundae TriS by germ tube elongation assay. It counts as functional.
Conditions: not given
With `CC1=C(C(=O)Nc2ccccc2)SCCO1` [CARBOXIN], the “Ratio EC50” value was 1.4.

Take `Cc1cc(C2CC2)nc(Nc2ccccc2)n1` [CYPRODINIL]: the “Ratio EC50” value is given as 13.

For `CC(C)CC(C)c1sccc1NC(=O)c1cn(C)nc1C(F)(F)F` (stereo not drawn) [PENTHIOPYRAD], the “Ratio EC50” value amounted to 12.

With `Cc1cc(C)nc(Nc2ccccc2)n1` [PYRIMETHANIL], the “Ratio EC50” value came to 12.

Turning to `Cc1cccc(N(C)C(=S)Oc2ccc3ccccc3c2)c1` [TOLNAFTATE], the “Ratio EC50” value is on record as above 30.

The test system of a further assay is Oculimacula yallundae. Kind of assay: Resistance index, ratio of EC50 for sterol 14alpha-demethylation inhibitor-resistant Oculimacula yallundae TriR1 to EC50 for wild type Oculimacula yallundae TriS by germ tube elongation assay.
Conditions: not given
It counts as functional.
With `CC1=C(C(=O)Nc2ccccc2)SCCO1` [CARBOXIN], the “Ratio EC50” value is given as 1.

On to `Cc1cc(C2CC2)nc(Nc2ccccc2)n1` [CYPRODINIL], for which the “Ratio EC50” value is listed as 1.

Regarding `CC(C)CC(C)c1sccc1NC(=O)c1cn(C)nc1C(F)(F)F` (stereo not drawn) [PENTHIOPYRAD], the “Ratio EC50” value worked out at 1.

On to `Cc1cc(C)nc(Nc2ccccc2)n1` [PYRIMETHANIL], for which the “Ratio EC50” value is on record as 1.

On to `Cc1cccc(N(C)C(=S)Oc2ccc3ccccc3c2)c1` [TOLNAFTATE], for which the “Ratio EC50” value was determined as 1.3.

Usually EC50 stands for the concentration giving half of the maximal effect.
